Experimental findings from patent publication US20230219962A1, “PYRAZOLO[4,3-d]PYRIMIDINE DERIVATIVES AND METHODS OF USE THEREOF FOR THE TREATMENT OF CELLULAR PROLIFERATIVE DISORDERS” (Merck Sharp & Dohme LLC, priority 2020, published 2023) are described below.

One test concerns the target T1, hTLR7 (Homo sapiens, UniProt Q9NYK1).
T1 construct: host or cells: HEK-Blue hTLR7 cells (HEK293-derived, own knowledge)
T1 sequence (Q9NYK1 27-1049): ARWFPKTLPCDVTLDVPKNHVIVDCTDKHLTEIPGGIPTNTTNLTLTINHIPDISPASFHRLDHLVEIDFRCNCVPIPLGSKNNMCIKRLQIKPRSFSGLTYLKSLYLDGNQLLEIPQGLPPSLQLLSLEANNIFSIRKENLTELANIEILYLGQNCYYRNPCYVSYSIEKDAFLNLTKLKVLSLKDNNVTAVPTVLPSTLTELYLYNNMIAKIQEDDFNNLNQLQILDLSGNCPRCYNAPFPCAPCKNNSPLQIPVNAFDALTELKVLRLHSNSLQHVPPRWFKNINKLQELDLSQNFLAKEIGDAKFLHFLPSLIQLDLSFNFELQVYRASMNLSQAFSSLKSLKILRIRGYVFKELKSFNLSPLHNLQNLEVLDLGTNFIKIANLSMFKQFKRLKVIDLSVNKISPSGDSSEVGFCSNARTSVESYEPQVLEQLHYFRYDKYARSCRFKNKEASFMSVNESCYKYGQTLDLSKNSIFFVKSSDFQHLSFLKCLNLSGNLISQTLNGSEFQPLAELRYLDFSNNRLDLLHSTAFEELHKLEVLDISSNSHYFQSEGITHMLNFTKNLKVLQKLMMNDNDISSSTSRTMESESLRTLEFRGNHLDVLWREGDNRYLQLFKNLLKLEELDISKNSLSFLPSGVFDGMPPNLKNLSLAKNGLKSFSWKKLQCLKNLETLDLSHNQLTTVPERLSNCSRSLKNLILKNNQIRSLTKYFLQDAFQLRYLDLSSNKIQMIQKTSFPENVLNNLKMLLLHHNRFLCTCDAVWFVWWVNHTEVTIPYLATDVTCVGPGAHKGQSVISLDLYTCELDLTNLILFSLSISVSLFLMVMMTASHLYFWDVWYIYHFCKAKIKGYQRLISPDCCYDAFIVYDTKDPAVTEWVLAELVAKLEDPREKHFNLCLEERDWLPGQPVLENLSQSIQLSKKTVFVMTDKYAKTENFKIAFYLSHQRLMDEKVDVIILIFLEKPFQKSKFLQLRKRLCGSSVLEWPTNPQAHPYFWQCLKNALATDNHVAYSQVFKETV
The test is described as follows: Human TLR7 Reporter Assay. Type of test: cell-based. Conditions: HEK-Blue hTLR7 cells, 16 hours, normalized to CL097 (6 μM) and DMSO. The method, then:
(§1) HEK-Blue™ hTLR7 cells (Invivogen, San Diego, Calif.) were maintained at 37° C./5% CO2/90% relative humidity in Dulbecco's Modified Eagle's Medium with 10% fetal bovine serum, 100 units/mL penicillin, 100 μg/mL streptomycin, 100 μg/mL normocin, 10 μg/mL blasticidin, and 100 μg/mL zeocin. HEK-Blue™ hTLR7 cells were maintained at 10-90% confluence and used before passage 20. For this assay, test compounds were dissolved in DMSO, and 10-point serial 3-fold dilution series in DMSO were prepared in Echo Qualified 384-well Polypropylene Microplates (Labcyte, San Jose, Calif.). Assay plates (384-well flat, clear bottom, black polystyrene TC-treated microtiter plates; Corning, Corning, N.Y.) were prepared by dispensing 150 nL of test compounds, high control (CL097; Invivogen, San Diego, Calif.), and low control (DMSO) by ECHO acoustic dispenser (Labcyte, San Jose Calif.) followed by addition of 5 μL of HEK-Blue™ Detection assay media (Invivogen, San Diego, Calif.). HEK-Blue™ hTLR7 cells in HEK-Blue™ Detection assay media (20,000 cells per well in 45 μL of media) were added to the assay plate and incubated for 16 hours at 37° C./5% CO2/90% relative humidity. For detection, assay plates were removed from the incubator, allowed to cool to ambient temperature, centrifuged at 200×g for 1 minutes, and read with an EnSpire Multimode Plate Reader (Perkin Elmer, Waltham, Mass.) for absorbance at 620 nm. Test compound effects were normalized to the window defined by the controls, CL097 (6 μM), and DMSO. Calculated % effects were fit using a 4-parameter algorithm, and EC50 was reported.

The next test deals with T2, hTLR8 (Homo sapiens, UniProt Q9NR97).
T2 construct: host or cells: HEK-Blue hTLR8 cells (HEK293-derived, own knowledge)
T2 sequence (Q9NR97 27-1041): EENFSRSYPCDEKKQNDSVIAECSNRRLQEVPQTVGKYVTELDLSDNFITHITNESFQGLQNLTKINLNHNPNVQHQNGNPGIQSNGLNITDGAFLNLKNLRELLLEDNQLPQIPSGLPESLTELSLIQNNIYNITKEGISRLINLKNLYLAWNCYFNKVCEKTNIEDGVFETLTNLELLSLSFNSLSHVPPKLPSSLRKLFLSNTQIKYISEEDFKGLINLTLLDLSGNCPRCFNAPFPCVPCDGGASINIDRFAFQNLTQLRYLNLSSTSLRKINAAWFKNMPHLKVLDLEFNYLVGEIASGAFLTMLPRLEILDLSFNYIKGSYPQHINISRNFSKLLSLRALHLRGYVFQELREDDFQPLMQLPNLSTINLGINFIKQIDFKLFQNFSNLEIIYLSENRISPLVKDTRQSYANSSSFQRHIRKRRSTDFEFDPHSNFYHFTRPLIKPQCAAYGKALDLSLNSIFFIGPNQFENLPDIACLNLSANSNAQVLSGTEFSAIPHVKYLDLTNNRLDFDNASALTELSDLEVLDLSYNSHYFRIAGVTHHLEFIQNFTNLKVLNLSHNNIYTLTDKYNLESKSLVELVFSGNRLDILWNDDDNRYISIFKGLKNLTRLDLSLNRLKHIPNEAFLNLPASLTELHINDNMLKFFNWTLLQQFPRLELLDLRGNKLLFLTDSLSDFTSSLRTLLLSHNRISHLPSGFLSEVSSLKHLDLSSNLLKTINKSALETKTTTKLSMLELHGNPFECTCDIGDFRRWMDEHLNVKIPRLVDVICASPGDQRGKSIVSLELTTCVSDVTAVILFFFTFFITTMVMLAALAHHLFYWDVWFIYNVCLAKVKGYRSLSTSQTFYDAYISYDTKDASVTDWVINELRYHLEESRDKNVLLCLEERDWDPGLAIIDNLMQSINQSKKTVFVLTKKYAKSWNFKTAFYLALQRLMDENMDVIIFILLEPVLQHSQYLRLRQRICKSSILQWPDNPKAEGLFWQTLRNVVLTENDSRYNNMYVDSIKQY
The test is described as follows: Human TLR8 Reporter Assay. Type of test: cell-based. Conditions: HEK-Blue hTLR8 cells, 16 hours, normalized to tl8-506 (1 μM) and DMSO. As for the experimental part: as §1, with “hTLR8” for “hTLR7”, “(tl8-506;” for “(CL097;”, “tl8-506 (1” for “CL097 (6”
On the technique in general: A reporter such as luciferase makes a cellular process visible.

SMILES strings stand for the structures.

For orientation: EC50 means the concentration needed to bring the measured effect to its halfway point. Low readings indicate a more potent agent, high ones a less potent agent. Turning to `CCCCNc1nc(N)nc2cn(Cc3ccccc3OC)nc12` [Compound 1], the results for the EC50 at hTLR7 and on hTLR8 were 0.665 µM and 4.9 µM, respectively.
As for `CCCCNc1nc(N)nc2cn(Cc3ccccc3)nc12` [Compound 2], the EC50 at hTLR7 came out at 1.09 µM; at hTLR8, 4.21 µM.
The like results for `CCCCNc1nc(N)nc2cn(Cc3ccccc3C)nc12` [Compound 3] were, in that order, 1.22 µM and more than 29.9 µM.
The like results for `CCCCNc1nc(N)nc2cn(Cc3ccccc3Cl)nc12` [Compound 4] were, in that order, 0.578 µM and 6.54 µM.
As for `CCCCNc1nc(N)nc2cn(Cc3c(OC)cccc3OC)nc12` [Compound 5], the EC50 at hTLR7 came to 0.0727 µM; at hTLR8, 0.328 µM.
For the compound `CCCCNc1nc(N)nc2cn(CC3CCCCC3)nc12` [Compound 7], the EC50 at hTLR7 was 2.52 µM; at hTLR8, more than 29.9 µM.
For the compound `CCCCNc1nc(N)nc2cn(Cc3ncccc3OC)nc12` [Compound 8], the EC50 at hTLR7 turned out to be 0.0509 µM; at hTLR8, 0.546 µM.
Take `CCCCNc1nc(N)nc2cn(CCCCCCCCN)nc12` [Compound 13]: the results for the half-maximal effective concentration (EC50) on hTLR7 and on hTLR8 were 3.04 µM and 26.1 µM, respectively.
The like results for `CCCCC(CCO)Nc1nc(N)nc2cn(Cc3ccccc3OC)nc12` (centres unmarked) [Compound 16] were, in that order, 0.0862 µM and more than 9.98 µM.
With `CCCCC(CCO)Nc1nc(N)nc2cn(Cc3ccccc3OC)nc12` (centres unmarked) [Compound 17], the figures for the EC50 at hTLR7 and at hTLR8 were 0.398 µM and more than 29.9 µM, respectively.
For the compound `CCCCC(CCC)Nc1nc(N)nc2cn(Cc3ccccc3OC)nc12` (centres unmarked) [Compound 18], the EC50 on hTLR7 is 0.315 µM; on hTLR8 it was more than 29.9 µM.
Consider `CCCCC(CCC)Nc1nc(N)nc2cn(Cc3ccccc3OC)nc12` (centres unmarked) [Compound 19], for which the EC50 on hTLR7 is 0.435 µM; at hTLR8, more than 29.9 µM.
For the compound `COc1ccccc1Cn1cc2nc(N)nc(N3CCC(CO)C3)c2n1` (centres unmarked) [Compound 24], the values for the EC50 at hTLR7 and on hTLR8 were 2.45 µM and more than 29.9 µM, respectively.
For the compound `CCCNc1nc(N)nc2cn(Cc3c(OC)cccc3OC)nc12` [Compound 26], the values for the EC50 at hTLR7 and on hTLR8 were 0.464 µM and 1.89 µM, respectively.
For `COc1cccc(OC)c1Cn1cc2nc(N)nc(NC(C)C)c2n1` [Compound 27] the same measures were 1.12 µM and 4.38 µM.
On to `CCCCCNc1nc(N)nc2cn(Cc3c(OC)cccc3OC)nc12` [Compound 28], for which the concentration for a half-maximal effect (EC50) was 0.214 µM at hTLR7 and 1.01 µM at hTLR8.
Take `CCC[C@H](CO)Nc1nc(N)nc2cn(Cc3ccccc3OC)nc12` [Compound 29]: the EC50 was 2.77 µM at hTLR7 and 28.2 µM at hTLR8.
For the compound `CCCCNc1nc(N)nc2cn(CCc3ccccc3OC)nc12` [Compound 36], the EC50 on hTLR7 was 3.1 µM; on hTLR8, more than 29.9 µM.
Take `CCCCNc1nc(N)nc2cn(Cc3ccccc3OC(C)C)nc12` [Compound 37]: the figures for the EC50 at hTLR7 and on hTLR8 were 1.03 µM and more than 9.98 µM, respectively.
As for `CCCCNc1nc(N)nc2cn(Cc3ccc(OC)cc3)nc12` [Compound 38], the figures for the EC50 on hTLR7 and on hTLR8 were 0.263 µM and 1.69 µM, respectively.
As for `CCCCNc1nc(N)nc2cn(Cc3c(C)cccc3OC)nc12` [Compound 39], the EC50 at hTLR7 was 0.239 µM; at hTLR8, 0.748 µM.
With `CCCCNc1nc(N)nc2cn(Cc3c(OCC)cccc3OCC)nc12` [Compound 40], the EC50 on hTLR7 worked out at 0.125 µM; on hTLR8, 0.813 µM.
`CCCCNc1nc(N)nc2cn(Cc3c(F)cccc3F)nc12` [Compound 41]: the EC50 was determined as 0.0686 µM on hTLR7 and 0.71 µM on hTLR8.
`CCCCNc1nc(N)nc2cn(CCCCN)nc12` [Compound 42]: the values for the EC50 on hTLR7 and at hTLR8 were more than 29.9 µM and 2.98 µM, respectively.
On to `CNc1nc(N)nc2cn(Cc3c(OC)cccc3OC)nc12` [Compound 43], for which the EC50 was 1.37 µM at hTLR7 and more than 9.98 µM on hTLR8.
For `CCNc1nc(N)nc2cn(Cc3c(OC)cccc3OC)nc12` [Compound 44], the figures for the EC50 on hTLR7 and at hTLR8 were 0.858 µM and 3.93 µM, respectively.
In the case of `CCCCNc1nc(N)nc2cn(Cc3c(OC)ccc(CNC(=O)C4CCC(CN5C(=O)C=CC5=O)CC4)c3OC)nc12` (centres unmarked) [Compound 81], the EC50 at hTLR7 was more than 29.9 µM.
